What all share (type): biochemical
The target in experiment [1] is hCDK1/B (Homo sapiens, UniProt P06493). As to the kind of experiment: hCDK1/B.
The target in experiment [2] is CDK4 (Homo sapiens, UniProt P11802). As to the kind of experiment: CDK4 HTRF. In general terms: In TR-FRET formats the signal depends on donor and acceptor labels being close together.
The target of experiment [3] is CDK2 cyA (Homo sapiens, UniProt P24941). As to the kind of experiment: CDK2 cyA IMAP.
Setting [4] is: Table 1, read-out: CDK2 cyA IMAP.
Where [5] appears, read: Table 2, read-out: CDK4 HTRF/ IC50.
Where [6] appears, read: Table 2, read-out: CDK2cyA IMAP/ IC50.

SMILES strings stand for the structures. Like-named read-outs stand apart in the source and are kept apart here.

Chain of hCDK1/B (P06493 whole entry): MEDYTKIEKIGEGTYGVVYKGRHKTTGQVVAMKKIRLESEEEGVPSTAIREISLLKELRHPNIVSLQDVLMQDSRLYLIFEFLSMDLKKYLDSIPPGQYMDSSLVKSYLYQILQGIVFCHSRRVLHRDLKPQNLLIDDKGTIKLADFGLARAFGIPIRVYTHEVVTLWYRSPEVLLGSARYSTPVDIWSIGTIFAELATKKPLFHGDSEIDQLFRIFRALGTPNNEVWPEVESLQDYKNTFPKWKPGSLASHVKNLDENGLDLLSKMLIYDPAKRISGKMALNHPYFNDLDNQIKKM
Chain of hCDK1/B (P14635 whole entry partner): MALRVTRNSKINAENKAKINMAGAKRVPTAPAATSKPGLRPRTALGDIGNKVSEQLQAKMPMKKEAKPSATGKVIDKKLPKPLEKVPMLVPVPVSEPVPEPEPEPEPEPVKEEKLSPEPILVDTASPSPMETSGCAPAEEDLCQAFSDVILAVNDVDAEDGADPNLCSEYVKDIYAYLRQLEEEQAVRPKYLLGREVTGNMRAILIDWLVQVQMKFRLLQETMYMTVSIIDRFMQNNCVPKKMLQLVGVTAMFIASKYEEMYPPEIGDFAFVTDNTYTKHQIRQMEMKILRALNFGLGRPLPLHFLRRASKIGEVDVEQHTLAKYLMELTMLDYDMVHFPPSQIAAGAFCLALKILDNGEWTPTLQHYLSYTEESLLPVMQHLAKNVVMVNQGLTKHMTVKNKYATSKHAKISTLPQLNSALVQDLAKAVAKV
Chain of CDK4 (P11802 whole entry): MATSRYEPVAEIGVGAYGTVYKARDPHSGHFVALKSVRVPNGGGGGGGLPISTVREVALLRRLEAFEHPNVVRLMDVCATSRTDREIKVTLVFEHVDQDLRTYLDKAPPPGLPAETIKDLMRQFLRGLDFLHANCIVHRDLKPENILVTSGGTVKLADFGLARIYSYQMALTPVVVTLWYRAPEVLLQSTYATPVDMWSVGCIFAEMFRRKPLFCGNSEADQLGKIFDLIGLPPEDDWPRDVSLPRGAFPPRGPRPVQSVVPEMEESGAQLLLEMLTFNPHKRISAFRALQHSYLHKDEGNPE
Chain of CDK4 (P24385 whole entry partner): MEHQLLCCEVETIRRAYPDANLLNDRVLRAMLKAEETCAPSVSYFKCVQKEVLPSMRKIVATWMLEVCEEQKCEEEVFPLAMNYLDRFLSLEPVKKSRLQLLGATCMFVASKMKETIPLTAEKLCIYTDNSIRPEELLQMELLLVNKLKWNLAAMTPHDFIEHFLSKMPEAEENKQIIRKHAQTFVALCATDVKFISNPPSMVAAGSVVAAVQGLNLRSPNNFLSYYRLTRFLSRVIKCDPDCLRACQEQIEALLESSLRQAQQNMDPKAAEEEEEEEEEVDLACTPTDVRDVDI

As for `CCC(CC)c1[nH]ncc1-c1ccnc(NCc2ccccc2C)c1` [Example 71], the IC50 is under 5 µM in experiment [1] (Table 1); under 0.5 µM in experiment [2] (Table 1, read-out: CDK4 HTRF); under 5 µM in experiment [3] (setting [4]).

With `c1cc(-c2cn[nH]c2C2CCCC2)cc(NCC2CC2)n1` [Example 57], the IC50 in experiment [1] (Table 1) was under 5 µM; in experiment [2] (Table 1, read-out: CDK4 HTRF), under 1 µM; in experiment [3] (setting [4]), under 5 µM.

Regarding `Cc1n[nH]cc1-c1ccnc(NC2CCCNC2)n1` (stereo not drawn) [Example 138], the IC50 was under 5 µM in experiment [1] (Table 2), under 1 µM in experiment [2] (setting [5]) and under 5 µM in experiment [3] (setting [6]).

Consider `Cc1n[nH]cc1-c1ccnc(NCCc2cccnc2)n1` [Example 132], for which the results for the IC50 in experiment [1] (Table 2), in experiment [2] (setting [5]) and in experiment [3] (setting [6]) were under 10 µM, under 1 µM and under 10 µM, respectively.

Take `CC(C)c1[nH]ncc1-c1ccnc(NCCCCN2CCCC2)c1` [Example 33]: the IC50 is at least 15 µM in experiment [1] (Table 1); under 5 µM in experiment [2] (Table 1, read-out: CDK4 HTRF); at least 15 µM in experiment [3] (setting [4]).

On to `CC(C)c1n[nH]cc1-c1ccnc(N[C@H](C)c2ccccn2)n1` [Example 187], for which the IC50 in experiment [1] (Table 2) was under 5 µM; in experiment [2] (setting [5]), under 0.1 µM; in experiment [3] (setting [6]), under 5 µM.

As to `Cc1n[nH]cc1-c1ccnc(NC2CCN(c3ccccc3)CC2)n1` [Example 136], the IC50 in experiment [1] (Table 2) was under 5 µM; in experiment [2] (setting [5]), under 0.5 µM; in experiment [3] (setting [6]) it was under 5 µM.

With `CC(C)c1[nH]ncc1-c1ccnc(NCCc2ccccc2)c1` [Example 37], the IC50 in experiment [1] (Table 1) was under 5 µM; in experiment [2] (Table 1, read-out: CDK4 HTRF), under 0.5 µM; in experiment [3] (setting [4]) it was under 1 µM.

With `CC(C)c1n[nH]cc1-c1ccnc(NC2CCCc3cccnc32)n1` (stereo not drawn) [Example 186], the IC50 in experiment [1] (Table 2) was at least 15 µM; in experiment [2] (setting [5]) it was under 0.5 µM; in experiment [3] (setting [6]) it was over 15 µM.

Consider `CC(C)c1n[nH]cc1-c1ccnc(NCc2c(F)cccc2F)n1` [Example 157], for which the IC50 is under 1 µM in experiment [1] (Table 2), under 1 µM in experiment [2] (setting [5]) and under 5 µM in experiment [3] (setting [6]).

On to `Cc1nnc(CCNc2nccc(-c3c[nH]nc3C(C)C)n2)[nH]1` [Example 161], for which the IC50 is under 5 µM in experiment [1] (Table 2), under 0.5 µM in experiment [2] (setting [5]) and under 5 µM in experiment [3] (setting [6]).

Turning to `CC(C)c1[nH]ncc1-c1ccnc(NC2CCCCCC2)c1` [Example 40], the IC50 was under 1 µM in experiment [1] (Table 1); under 0.5 µM in experiment [2] (Table 1, read-out: CDK4 HTRF); under 0.5 µM in experiment [3] (setting [4]).

On to `CC(C)c1n[nH]cc1-c1ccnc(NC2CCN(c3ccccc3)CC2)n1` [Example 172], for which the IC50 in experiment [1] (Table 2) was under 0.5 µM; in experiment [2] (setting [5]), under 0.05 µM; in experiment [3] (setting [6]), under 0.5 µM.

In the case of `CC(C)c1n[nH]cc1-c1ccnc(N[C@@H](C)c2ccccc2)n1` [Example 182], the IC50 is under 5 µM in experiment [1] (Table 2), under 10 µM in experiment [2] (setting [5]) and under 10 µM in experiment [3] (setting [6]).

For the compound `COc1ccc(CNc2cc(-c3cn[nH]c3C(C)C)ccn2)cc1` [Example 34], the IC50 was under 5 µM in experiment [1] (Table 1); under 5 µM in experiment [2] (Table 1, read-out: CDK4 HTRF); under 5 µM in experiment [3] (setting [4]).

Take `CC(C)c1[nH]ncc1-c1ccnc(NC2CCN(C)CC2)c1` [Example 78]: the IC50 is under 10 µM in experiment [1] (Table 1); under 0.5 µM in experiment [2] (Table 1, read-out: CDK4 HTRF); under 15 µM in experiment [3] (setting [4]).

As for `CC(C)c1n[nH]cc1-c1ccnc(NCCCN(C)C)n1` [Example 167], the values for the IC50 in experiment [1] (Table 2), in experiment [2] (setting [5]) and in experiment [3] (setting [6]) were under 5 µM, under 1 µM and under 10 µM, respectively.

Consider `Cc1n[nH]cc1-c1ccnc(NCC(C)C)n1` [Example 92], for which the IC50 in experiment [1] (Table 2), in experiment [2] (setting [5]) and in experiment [3] (setting [6]) was under 5 µM throughout.

As to `CC(C)c1[nH]ncc1-c1ccnc(NC2CC2)c1` [Example 39], the IC50 in experiment [1] (Table 1) was under 5 µM; in experiment [2] (Table 1, read-out: CDK4 HTRF) it was under 0.5 µM; in experiment [3] (setting [4]) it was under 1 µM.

As to `CC(C)c1[nH]ncc1-c1ccnc(NCc2ccccc2)c1` [Example 4], the IC50 in experiment [1] (Table 1) was under 5 µM; in experiment [2] (Table 1, read-out: CDK4 HTRF), under 1 µM; in experiment [3] (setting [4]), under 5 µM.

`CCC(CC)c1[nH]ncc1-c1ccnc(NC2CCN(C)CC2)c1` [Example 73]: the IC50 in experiment [1] (Table 1) was under 5 µM; in experiment [2] (Table 1, read-out: CDK4 HTRF), under 1 µM; in experiment [3] (setting [4]), under 10 µM.

With `CC(C)c1n[nH]cc1-c1ccnc(NC2CC(C)(C)c3ccccc32)n1` (stereo not drawn) [Example 191], the IC50 is under 5 µM in experiment [1] (Table 2), under 0.5 µM in experiment [2] (setting [5]) and under 5 µM in experiment [3] (setting [6]).

As for `Cc1ccccc1CNc1cc(-c2cn[nH]c2C(C)C)ccn1` [Example 14, [4-(5-Isopropyl-1H-pyrazol-4-yl)-pyridin-2-yl]-(2-methyl-benzyl)-amine], the IC50 in experiment [1] (Table 1) was under 5 µM; in experiment [2] (Table 1, read-out: CDK4 HTRF) it was under 0.1 µM; in experiment [3] (setting [4]), under 5 µM.

Regarding `CC(C)c1n[nH]cc1-c1ccnc(NCc2ccc(N(C)C)cc2)n1` [Example 147], the IC50 in experiment [1] (Table 2), in experiment [2] (setting [5]) and in experiment [3] (setting [6]) was under 5 µM each time.

For `CC(C)c1n[nH]cc1-c1ccnc(NC2CCN(C(=O)OC(C)(C)C)CC2)n1` [Example 140], the IC50 in experiment [1] (Table 2) is under 0.5 µM; in experiment [2] (setting [5]) it was under 0.05 µM; in experiment [3] (setting [6]), under 1 µM.

The values above are taken from US8367687B2, “Pyrazole derivatives” (Novartis AG, priority 2007, dated 2013).
